Data set [1] deals with ATP production in Hep3B cells. The data set can be described thus: ATP production in Hep3B cells. The class given is cell-based, human. As to conditions: for amount of ATP produced (FIG. 8): compound 10 μM, 24 hours, ratio to DMSO = 1; for increase of ATP concentration in cells relative to the normal level: at least in 3 hours. As for the experimental part:
The Hep3B cells were seeded at 1×10^4 cells/well to a 24-well cell culture plate and then cultured under normal oxygen (20% O2) for 24 hours. Each of 36 types of compounds (compounds #1 to 15, 17 to 31, and 34 to 39) was mixed at a concentration of 10 μM into RPMI1640 common medium 1. After further culture under normal oxygen (20% […]) for 3 hours, 6 hours, or 24 hours, the concentration of ATP produced in the medium was measured using ATP Assay Reagent of “Cells” (manufactured by Toyo B-Net Co., Ltd.) and GloMa 96 Microplate Luminometer (manufactured by Promega K.K.). Hep3B cells cultured in the absence of the compound (DMSO added [1%]) (“DMSO” of FIGS. 6 to 8) were used as a negative control. Hep3B cells cultured in the presence of HIF activators (FG-4592 [10 μM], DMOG [10 μM], 3,4-DHB [10 μM], and ciclopirox[10 μM]) (“FG”, “DMOG”, “34-DHB”, and “Ciclo”, respectively, of FIGS. 6 to 8) and Hep3B cells cultured in the presence of a transcriptional repressor GATA-specific inhibitor of erythropoietin (K7174 [10 μM]) (“K7174” of FIGS. 6 to 8) were used as positive controls.

Data set [2] relates to mouse erythropoietin gene promoter. The experiment in a line: Luciferase reporter assay of erythropoietin gene promoter in Hep3B cells. Particulars: for effect on erythropoietin gene promoter transcriptional activity compared with HIF activator FG-4592: compound 10 μM vs FG-4592 10 μM, 20% O2; for transcription level of the erythropoietin gene promoter: compound 10 μM, 20% O2, 48 hours, vs 20% O2/DMSO. The class given is cell-based. As for the experimental part:
A plasmid vector HE-mPro-luc for luciferase assay on the promoter activity of the 5′ upstream transcriptional regulatory region of the mouse erythropoietin gene was prepared by cleaving, with restriction enzymes XbaI and SacI, a region having a length from −571 to +53 bp starting at the translation initiation site of exon 1 of the mouse erythropoietin gene, and inserting this region to a luciferase reporter vector pXP2 (Nordeen S K. BioTechniques. 6: […], 1988).
The Hep3B cells were adjusted to 10×10^4 cells/well in a 24-well cell culture plate and subcultured. Under microscopy, the Hep3B cells that reached a cell density of 70 to 80% were transfected with the plasmid DNA for luciferase reporter assay. The composition of a solution for transfection was prepared by mixing 2 μg of HE-mPro-luc, 50 ng of pRh-TK (manufactured by Promega K.K.), and 2 μl of Lipofectamine 2000 (manufactured by Invitrogen Corp.) with 100 μl of OptiMEM-I (manufactured by Life Technologies, Inc./GIBCO) per well, followed by incubation at room temperature for 20 minutes. The solution was added to the Hep3B cells in the 24-well cell culture plate preincubated in 0.5 ml of serum-free OptiMEM-I medium, and then incubated for 4 hours without serum and antibiotics under conditions of 37° C. and 5% CO2/20% O2. Then, the medium was replaced with RPMI1640 common medium 1 supplemented with each of 5 types of compounds (compounds #2, 4, 5, 18, and 21) at a concentration of 10 μM, followed by further incubation for 48 hours under conditions of 37° C. and 5% CO2/20% O2. Then, the medium was replaced with 0.5 ml of serum-free PBS, and the cells were gently washed, followed by the removal of PBS by suction. This operation was carried out twice. Then, 100 μl of passive lysis buffer (manufactured by Promega K.K.) was added thereto, and the cells were lysed by mixing at room temperature for 20 minutes. Hep3B cells cultured in the absence of the compound (DMSO added [1%]) (“20% O2/DMSO” of FIG. 3) were used as a negative control. Hep3B cells cultured in the presence of an HIF activator (FG-4592 [10 μM]) (“20% O2/FG4592” of FIG. 3) and Hep3B cells cultured under hypoxia (1% O2) conditions and in the absence of the compound (DMSO added [1%]) (“1% O2/DMSO” of FIG. 3) were used as positive controls.
Dual Luciferase Reporter Assay System (manufactured by Promega K.K.) was used in the luciferase reporter assay. The amounts of firefly and Renilla luciferases were measured using a luminometer Lumat LB9507 (manufactured by BERTHOLD TECHNOLOGIES GmbH & Co. KG). The amount of Fire fly luciferase was divided by the amount of Renilla luciferase to calculate the transcriptional activity of the erythropoietin gene.
Background: A reporter such as luciferase makes a cellular process visible.

The subject of data set [3] is mRNA expression of the erythropoietin gene. The data set can be described thus: Quantitative PCR of erythropoietin mRNA in Hep3B cells. The format is cell-based, human. Particulars: compound 10 μM, 20% O2, GAPDH internal standard. On the procedure:
Of the 5 types of compounds confirmed in Example 4 to be effective for promoting the transcriptional activity of the erythropoietin gene promoter, 4 types of compounds (compounds #2, 4, 5, and 21) were selected. From Hep3B cells cultured in RPMI1640 common medium 1 supplemented with each of these 4 types of compounds at a concentration of 10 μM, total RNA was extracted using TriPure Isolation Reagent (manufactured by F. Hoffmann La Roche AG) in a 6-well cell culture plate. Hep3B cells cultured in the absence of the compound (DMSO added) (“20% O2/DMSO” of FIG. 4) were used as a negative control. Hep3B cells cultured in the presence of a GATA-specific inhibitor (K7174 [10 μM]) (“20% O2/K7174” of FIG. 4) and Hep3B cells cultured under hypoxia (1% O2) conditions and in the absence of the compound (DMSO added [1%]) (“1% O2/DMSO” of FIG. 4) were used as positive controls.
The extracted RNA was used as a template to synthesize cDNA using SuperScript III RTS First-strand kit (manufactured by Invitrogen Corp.). Then, the expression of the erythropoietin mRNA was measured by quantitative PCR with GAPDH as an internal standard. The quantitative PCR was carried out using TaqMan® Gene Expression Assays (using GAPDH; Assay ID: Rn99999916_s1, and human erythropoietin; Assay ID: Hs00171267_ml TaqMan® probes [manufactured by Applied Biosystems Inc.]) and Step One Plus Real-Time PCR System (manufactured by Applied Biosystems Inc.).

Another data set concerns Leigh cells. The data set can be described thus: Cell death caused by oxidative stress (BSO) in Leigh syndrome patient fibroblasts. The class given is cell-based, human. As to conditions: compound 10 μM, 4 days after BSO treatment. On the procedure:
In Examples 2 to 7 and Reference Example 1 below, an erythropoietin-producing human hepatocellular carcinoma cell Hep3B (obtained from ATCC [American Type Culture Collection]) was cultured and maintained under conditions of 5% CO2/20% O2 and 37° C. in an RPMI1640 (manufactured by Life Technologies, Inc./GIBCO) medium containing 100 U/mL penicillin (manufactured by Life Technologies, Inc./GIBCO), 100 μg/mL streptomycin (manufactured by Life Technologies, Inc./GIBCO), and 10% fetal bovine serum (FBS) (manufactured by Life Technologies, Inc./GIBCO) (hereinafter, referred to as “RPMI1640 common medium 1”). In Example 15 below, Leigh syndrome patients were subjected to skin biopsy to obtain skin fibroblast cells, which were then primarily cultured under conditions of 5% CO2/20% O2 and 37° C. in a DMEM low glucose (manufactured by Life Technologies, Inc./GIBCO) medium containing 100 U/mL penicillin (manufactured by Life Technologies, Inc./GIBCO), 100 μg/mL streptomycin (manufactured by Life Technologies, Inc./GIBCO), and 1% FBS (manufactured by Life Technologies, Inc./GIBCO) (hereinafter, referred to as “DMEM low glucose common medium”) to isolate cells (Leigh cells). In Example 13 below, a human kidney-derived cell line HK-2 (obtained from ATCC) was cultured and maintained under conditions of 5% CO2/20% O2 and 37° C. in a DMEM/F12 (manufactured by Life Technologies, Inc./GIBCO) medium containing 100 U/mL penicillin (manufactured by Life Technologies, Inc./GIBCO), 100 μg/mL streptomycin (manufactured by Life Technologies, Inc./GIBCO), and 10% fetal bovine serum (manufactured by Life Technologies, Inc./GIBCO) (hereinafter, referred to as “DMEM/F12 common medium”). In Example 14 below, a rat islet of Langerhans-derived cell line ISN-1e (kindly provided by Hisamitsu Ishihara, Nihon University School of Medicine) was cultured and maintained under conditions of 5% CO2/20% O2 and 37° C. in an RPMI1640 (manufactured by Life Technologies, Inc./GIBCO) medium containing 10 mM HEPES (manufactured by Sigma-Aldrich Corp.), 2 mM glutamine (manufactured by Sigma-Aldrich Corp.), 50 μM β-mercaptoethanol (manufactured by Sigma-Aldrich Corp.), 100 U/mL penicillin (manufactured by Life Technologies, Inc./GIBCO), 100 μg/mL streptomycin (manufactured by Life Technologies, Inc./GIBCO), and 10% FBS (manufactured by Life Technologies, Inc./GIBCO) (hereinafter, referred to as “RPMI1640 common medium 2”).
The Leigh cells were seeded at 4×10^4 cells/well to a 24-well cell culture plate and then cultured for 24 hours. The glutathione synthesis inhibitor BSO (L-buthionine sulphoximine) (manufactured by Sigma-Aldrich Corp.) was mixed at […] into a medium. After culture for 24 hours in the presence of BSO, each of 5 types of compounds (compounds #2, 4, 5, 21, and 35) was mixed at 10 μM into the medium. After culture for 4 days in the presence of these 5 types of compounds, the number of live cells was measured using Cell Counting Kit-8 (manufactured by Dojindo Laboratories) to calculate the survival rate of the cells (“BSO+#2”, “BSO+#4”, “BSO+#5”, “BSO+#21”, and “BSO+#35” of FIG. 17). […]

Molecules are shown by their SMILES.

On to `CCCCn1cc(CC(=O)O)c2ccccc21` [compound #29, N-Butyl-3-indoleacetic acid], for which, in data set [1], the “amount of ATP produced (FIG. 8)” value is “enhance the amount of ATP produced”.
As a reminder, the melting point is the temperature of the solid-liquid transition. As to `CCCCOc1ccc2[nH]cc(CC(=O)O)c2c1` [compound #39, 5-(1-Butoxy)-3-indoleacetic acid], the melting point fell in the range of 137.8 to 141.1 °C.
`O=C(CC(C(=O)O)c1c[nH]c2ccccc12)c1ccccc1` (stereo not shown) [compound #20, 4-Phenyl-2-(1H-indol-3-yl)-4-oxo-butanoic acid]: the melting point lay in the range of 149 to 150 °C.
Turning to `CCn1cc(CC(=O)O)c2ccccc21` [compound #27, N-Ethyl-3-indoleacetic acid], the “amount of ATP produced (FIG. 8)” value in data set [1] is “enhance the amount of ATP produced”.
`CCCCOc1ccc2cccc(CC(=O)O)c2c1` [compound #33, α-(7-Butoxy-1-naphthalenyl)-acetic acid]: the melting point fell in the range of 102 to 104 °C.
The same measure, in the same setting: the same measure for `CCOc1ccc2[nH]cc(CC(=O)O)c2c1` [compound #37, 5-Ethoxy-3-indoleacetic acid]: 86 to 92.7 °C.
On to `O=C(CC(C(=O)O)c1c[nH]c2ccccc12)c1ccc(Cl)cc1` (stereo not shown) [compound #2, 4-(4-Chlorophenyl)-2-(1H-indol-3-yl)-4-oxo-butanoic acid], for which, in data set [2], the “effect on erythropoietin gene promoter transcriptional activity compared with HIF activator FG-4592” value was “superior to the effect of the existing HIF activator (FG-4592)” and the “transcription level of the erythropoietin gene promoter” value is “increase the transcription level”. For the same compound, the “mRNA expression level of the erythropoietin gene” value in data set [3] is “increase the mRNA expression level”. The “cell death of the Leigh cells by BSO” value in the data set with Leigh cells is listed as “efficiently suppress the cell death”.
For `COc1ccc2[nH]cc(CC(=O)O)c2c1` [compound #36, 5-Methoxy-3-indoleacetic acid], in data set [1], the “increase of ATP concentration in cells relative to the normal level” value is listed as “two or more times the normal level”.
Compound `CCCn1cc(C(CC(=O)c2ccc(C)cc2C)C(=O)O)c2ccccc21` (stereo not shown) [compound #6, 4-(2,4-Dimethylphenyl)-2-(1-propyl-1H-indol-3-yl)-4-oxo-butanoic acid] gave a melting point of 139 to 141 °C.
`CCCCCCn1cc(CC(=O)O)c2ccccc21` [compound #30, N-Hexyl-3-indoleacetic acid]: in data set [1], the “amount of ATP produced (FIG. 8)” value is given as “enhance the amount of ATP produced”.
As to `CCCCCOc1ccc2cccc(CC(=O)O)c2c1` [compound #34, α-(7-Pentoxy-1-naphthalenyl)-acetic acid], the melting point fell in the range of 104 to 106 °C. The “increase of ATP concentration in cells relative to the normal level” value in data set [1] is on record as “two or more times the normal level”.
With `CCCOc1ccc2[nH]cc(CC(=O)O)c2c1` [compound #38, 5-(1-Propoxy)-3-indoleacetic acid], the melting point lay within 133.6 to 136.8 °C. Also, the “amount of ATP produced (FIG. 8)” value in data set [1] is given as “enhance the amount of ATP produced”.
As to `CCC(C)CCC(C(=O)O)c1c[nH]c2ccccc12` (stereo not drawn) [compound #18, α-(3-Methyl-1-pentyl)-3-indoleacetic acid], in data set [2], the “effect on erythropoietin gene promoter transcriptional activity compared with HIF activator FG-4592” value was “superior to the effect of the existing HIF activator (FG-4592)” and the “transcription level of the erythropoietin gene promoter” value is recorded as “increase the transcription level”.

Source of the values: US10004718B2, “Erythropoietin expression promoter” (TOHOKU UNIVERSITY, priority 2012, dated 2018).
